Test results: PMC12749166, “Fragment-based drug design of a bacterial kinase inhibitor capable of increasing the antibiotic sensitivity of clinical isolates” (Communications Chemistry, 2025)

Test system: P. aeruginosa C0307
Test: Checkerboard assay of 83 with kanamycin A
Type: cell-based
Details: for checkerboard well reading (growth): Supp. Figure 3 B

With Clc1cnc2[nH]ccc2c1-c1ccn[nH]1 [Compound 83] the “checkerboard well reading (growth)” value (83 1 µg.mL-1, kanamycin A 128 µg.mL-1) was 0.042, the “checkerboard well reading (growth)” value (83 2 µg.mL-1, kanamycin A 0 µg.mL-1) was 1.144 and the “checkerboard well reading (growth)” value (83 2 µg.mL-1, kanamycin A 2 µg.mL-1) was 1.163. For the same compound, the “checkerboard well reading (growth)” value (83 2 µg.mL-1, kanamycin A 4 µg.mL-1) was 1.143, the “checkerboard well reading (growth)” value (83 2 µg.mL-1, kanamycin A 8 µg.mL-1) was 1.140 and the “checkerboard well reading (growth)” value (83 2 µg.mL-1, kanamycin A 16 µg.mL-1) was 1.101. The “checkerboard well reading (growth)” value (83 2 µg.mL-1, kanamycin A 32 µg.mL-1) was 1.112, the “checkerboard well reading (growth)” value (83 2 µg.mL-1, kanamycin A 64 µg.mL-1) was 0.172 and the “checkerboard well reading (growth)” value (83 2 µg.mL-1, kanamycin A 128 µg.mL-1) was 0.038. For the same compound, the “checkerboard well reading (growth)” value (83 4 µg.mL-1, kanamycin A 0 µg.mL-1) was 1.132, the “checkerboard well reading (growth)” value (83 4 µg.mL-1, kanamycin A 2 µg.mL-1) was 1.139 and the “checkerboard well reading (growth)” value (83 4 µg.mL-1, kanamycin A 4 µg.mL-1) was 1.161. The “checkerboard well reading (growth)” value (83 4 µg.mL-1, kanamycin A 8 µg.mL-1) was 1.123, the “checkerboard well reading (growth)” value (83 4 µg.mL-1, kanamycin A 16 µg.mL-1) was 1.163 and the “checkerboard well reading (growth)” value (83 4 µg.mL-1, kanamycin A 32 µg.mL-1) was 1.149. The “checkerboard well reading (growth)” value (83 4 µg.mL-1, kanamycin A 64 µg.mL-1) was 0.250, the “checkerboard well reading (growth)” value (83 4 µg.mL-1, kanamycin A 128 µg.mL-1) was 0.041 and the “checkerboard well reading (growth)” value (83 8 µg.mL-1, kanamycin A 0 µg.mL-1) was 1.480. The “checkerboard well reading (growth)” value (83 8 µg.mL-1, kanamycin A 2 µg.mL-1) was 1.120, the “checkerboard well reading (growth)” value (83 8 µg.mL-1, kanamycin A 4 µg.mL-1) was 1.107 and the “checkerboard well reading (growth)” value (83 8 µg.mL-1, kanamycin A 8 µg.mL-1) was 1.138. For the same compound, the “checkerboard well reading (growth)” value (83 8 µg.mL-1, kanamycin A 16 µg.mL-1) was 1.202, the “checkerboard well reading (growth)” value (83 8 µg.mL-1, kanamycin A 32 µg.mL-1) was 1.141 and the “checkerboard well reading (growth)” value (83 8 µg.mL-1, kanamycin A 64 µg.mL-1) was 0.170. The “checkerboard well reading (growth)” value (83 8 µg.mL-1, kanamycin A 128 µg.mL-1) was 0.040, the “checkerboard well reading (growth)” value (83 16 µg.mL-1, kanamycin A 0 µg.mL-1) was 1.350 and the “checkerboard well reading (growth)” value (83 16 µg.mL-1, kanamycin A 2 µg.mL-1) was 1.145. For the same compound, the “checkerboard well reading (growth)” value (83 16 µg.mL-1, kanamycin A 4 µg.mL-1) was 1.177, the “checkerboard well reading (growth)” value (83 16 µg.mL-1, kanamycin A 8 µg.mL-1) was 1.181 and the “checkerboard well reading (growth)” value (83 16 µg.mL-1, kanamycin A 16 µg.mL-1) was 1.121. The “checkerboard well reading (growth)” value (83 16 µg.mL-1, kanamycin A 32 µg.mL-1) was 1.161, the “checkerboard well reading (growth)” value (83 16 µg.mL-1, kanamycin A 64 µg.mL-1) was 0.077 and the “checkerboard well reading (growth)” value (83 16 µg.mL-1, kanamycin A 128 µg.mL-1) was 0.041. For the same compound, the “checkerboard well reading (growth)” value (83 32 µg.mL-1, kanamycin A 0 µg.mL-1) was 1.542, the “checkerboard well reading (growth)” value (83 32 µg.mL-1, kanamycin A 2 µg.mL-1) was 1.314 and the “checkerboard well reading (growth)” value (83 32 µg.mL-1, kanamycin A 4 µg.mL-1) was 1.373. The “checkerboard well reading (growth)” value (83 32 µg.mL-1, kanamycin A 8 µg.mL-1) was 1.519, the “checkerboard well reading (growth)” value (83 32 µg.mL-1, kanamycin A 16 µg.mL-1) was 1.301 and the “checkerboard well reading (growth)” value (83 32 µg.mL-1, kanamycin A 32 µg.mL-1) was 1.153. For the same compound, the “checkerboard well reading (growth)” value (83 32 µg.mL-1, kanamycin A 64 µg.mL-1) was 0.041, the “checkerboard well reading (growth)” value (83 32 µg.mL-1, kanamycin A 128 µg.mL-1) was 0.042 and the “checkerboard well reading (growth)” value (83 64 µg.mL-1, kanamycin A 0 µg.mL-1) was 1.274. The “checkerboard well reading (growth)” value (83 64 µg.mL-1, kanamycin A 2 µg.mL-1) was 1.335, the “checkerboard well reading (growth)” value (83 64 µg.mL-1, kanamycin A 4 µg.mL-1) was 1.176 and the “checkerboard well reading (growth)” value (83 64 µg.mL-1, kanamycin A 8 µg.mL-1) was 1.404. For the same compound, the “checkerboard well reading (growth)” value (83 64 µg.mL-1, kanamycin A 16 µg.mL-1) was 1.087, the “checkerboard well reading (growth)” value (83 64 µg.mL-1, kanamycin A 32 µg.mL-1) was 0.939 and the “checkerboard well reading (growth)” value (83 64 µg.mL-1, kanamycin A 64 µg.mL-1) was 0.044. The “checkerboard well reading (growth)” value (83 64 µg.mL-1, kanamycin A 128 µg.mL-1) was 0.044, the “checkerboard well reading (growth)” value (83 128 µg.mL-1, kanamycin A 0 µg.mL-1) was 1.377 and the “checkerboard well reading (growth)” value (83 128 µg.mL-1, kanamycin A 2 µg.mL-1) was 1.277. For the same compound, the “checkerboard well reading (growth)” value (83 128 µg.mL-1, kanamycin A 4 µg.mL-1) was 1.324, the “checkerboard well reading (growth)” value (83 128 µg.mL-1, kanamycin A 8 µg.mL-1) was 1.318 and the “checkerboard well reading (growth)” value (83 128 µg.mL-1, kanamycin A 16 µg.mL-1) was 0.963. The “checkerboard well reading (growth)” value (83 128 µg.mL-1, kanamycin A 32 µg.mL-1) was 0.366, the “checkerboard well reading (growth)” value (83 128 µg.mL-1, kanamycin A 64 µg.mL-1) was 0.038 and the “checkerboard well reading (growth)” value (83 128 µg.mL-1, kanamycin A 128 µg.mL-1) was 0.043. The “Impact of 83 alone on bacterial growth” value (absence of antibiotics, 83 from 0 to 128 µg mL^−1 (585 µM)) was “no impact on bacterial growth”.
